Reference: ChEMBL document CHEMBL3868599, “Strategy for designing selective α-l-rhamnosidase inhibitors: Synthesis and biological evaluation of l-DMDP cyclic isothioureas” (Bioorg Med Chem, 2017)

Key:
[1] = Inhibition of Penicillium decumbens alpha-L-rhamnosidase assessed as reduction in hydrolysis of p-nitrophenyl-a-L-rhamnopyranoside
[2] = Inhibition of Penicillium decumbens alpha-L-rhamnosidase using p-nitrophenyl-glycoside as substrate by spectrophotometric method
[3] = Competitive inhibition of Penicillium decumbens alpha-L-rhamnosidase using p-nitrophenyl-glycoside as substrate by Lineweaver-Burk plot analysis
Penicillium decumbens [4] = assay: Potency index, ratio of 5-epi-deoxyrhamnojirimycin IC50 to compound IC50 for Penicillium decumbens alpha-L-rhamnosidase
[5] = target: T1, Tissue alpha-L-fucosidase (Bos taurus) (UniProt Q2KIM0); assay: Inhibition of bovine kidney alpha-L-fucosidase at 100 uM using p-nitrophenyl-glycoside as substrate by spectrophotometric method
T1 sequence (whole entry): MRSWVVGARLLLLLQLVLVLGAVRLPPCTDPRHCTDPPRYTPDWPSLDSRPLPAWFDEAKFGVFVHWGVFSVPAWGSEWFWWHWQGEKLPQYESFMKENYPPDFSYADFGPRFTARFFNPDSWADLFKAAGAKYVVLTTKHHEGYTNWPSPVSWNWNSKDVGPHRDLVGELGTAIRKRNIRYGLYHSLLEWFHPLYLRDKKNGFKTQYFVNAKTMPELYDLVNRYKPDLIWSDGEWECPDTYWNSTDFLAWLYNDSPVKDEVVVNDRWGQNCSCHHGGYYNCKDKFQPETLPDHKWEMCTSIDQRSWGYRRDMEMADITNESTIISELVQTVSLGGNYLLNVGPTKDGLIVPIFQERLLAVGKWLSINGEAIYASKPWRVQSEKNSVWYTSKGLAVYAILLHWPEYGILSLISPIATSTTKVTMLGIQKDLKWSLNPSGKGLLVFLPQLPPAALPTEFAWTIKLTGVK

[6] = target: T2, Beta-galactosidase (Bos taurus) (UniProt Q58D55); assay: (§1) Inhibition of bovine liver beta-galactosidase using p-nitrophenyl-glycoside as substrate by spectrophotometric method; conditions: concentration not given here
T2 sequence (whole entry): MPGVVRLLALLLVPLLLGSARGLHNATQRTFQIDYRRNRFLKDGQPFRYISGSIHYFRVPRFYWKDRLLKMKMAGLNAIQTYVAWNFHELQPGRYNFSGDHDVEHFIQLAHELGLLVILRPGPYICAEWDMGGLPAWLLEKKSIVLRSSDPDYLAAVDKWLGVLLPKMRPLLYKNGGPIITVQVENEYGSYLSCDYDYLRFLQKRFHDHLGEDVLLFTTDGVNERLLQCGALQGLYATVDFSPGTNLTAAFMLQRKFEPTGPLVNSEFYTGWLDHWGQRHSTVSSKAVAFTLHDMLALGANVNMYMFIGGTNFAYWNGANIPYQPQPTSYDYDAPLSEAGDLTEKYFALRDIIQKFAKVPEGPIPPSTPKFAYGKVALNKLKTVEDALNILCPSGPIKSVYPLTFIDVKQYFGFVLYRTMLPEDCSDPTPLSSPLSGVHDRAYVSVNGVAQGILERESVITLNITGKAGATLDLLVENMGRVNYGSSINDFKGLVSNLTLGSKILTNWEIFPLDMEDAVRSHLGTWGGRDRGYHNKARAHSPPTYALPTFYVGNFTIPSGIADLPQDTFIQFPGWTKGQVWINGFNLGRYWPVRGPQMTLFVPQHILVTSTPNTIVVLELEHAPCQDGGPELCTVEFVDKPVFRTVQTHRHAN

Oryza sativa = assay: Inhibition of rice alpha-glucosidase at 100 uM using p-nitrophenyl-glycoside as substrate by spectrophotometric method
Homo sapiens [7] = organism: Homo sapiens; assay: Inhibition of human lysosomal beta-glucosidase at 100 uM using 4-methylumbelliferyl-beta-D-glucopyranoside as substrate preincubated for 45 mins followed by substrate addition measured after 30 mins by fluorescence spectrophotometric method
Rattus norvegicus = organism: Rattus norvegicus; assay: Inhibition of rat intestinal maltase assessed as D-glucose level at 100 uM using maltose as substrate measured after 10 to 30 mins
Escherichia coli [8] = assay: Inhibition of Escherichia coli beta-glucuronidase at 100 uM using p-nitrophenyl-glycoside as substrate by spectrophotometric method
Prunus dulcis [9] = assay: Inhibition of almond beta-glucosidase at 100 uM using p-nitrophenyl-glycoside as substrate by spectrophotometric method
Aspergillus niger [10] = assay: Inhibition of Aspergillus niger amyloglucosidase assessed as D-glucose level at 100 uM using maltose as substrate measured after 10 to 30 mins
[11] = Inhibition of bovine liver beta-glucosidase using p-nitrophenyl-glycoside as substrate by spectrophotometric method; parameters: species or system Bos taurus
[12] = target: T3, Uncharacterized protein (Sus scrofa) (UniProt I3LIR5); assay: Inhibition of porcine kidney trehalase assessed as D-glucose level at 100 uM using maltose as substrate measured after 10 to 30 mins
T3 sequence (whole entry): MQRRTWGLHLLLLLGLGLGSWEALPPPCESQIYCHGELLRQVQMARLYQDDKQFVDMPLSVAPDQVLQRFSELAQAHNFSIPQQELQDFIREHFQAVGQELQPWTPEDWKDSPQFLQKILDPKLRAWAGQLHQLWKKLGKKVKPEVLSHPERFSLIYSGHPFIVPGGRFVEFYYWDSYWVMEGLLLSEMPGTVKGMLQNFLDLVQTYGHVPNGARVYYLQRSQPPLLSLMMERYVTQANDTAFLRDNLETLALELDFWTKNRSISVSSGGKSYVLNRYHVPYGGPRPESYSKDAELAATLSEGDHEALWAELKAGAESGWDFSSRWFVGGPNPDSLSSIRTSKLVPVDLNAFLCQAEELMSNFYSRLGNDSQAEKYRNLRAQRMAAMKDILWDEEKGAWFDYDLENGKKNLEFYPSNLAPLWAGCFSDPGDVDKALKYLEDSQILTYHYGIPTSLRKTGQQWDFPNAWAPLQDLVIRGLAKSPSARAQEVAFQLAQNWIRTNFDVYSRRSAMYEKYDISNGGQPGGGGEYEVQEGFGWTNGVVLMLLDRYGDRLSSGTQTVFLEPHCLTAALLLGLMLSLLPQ

[13] = Inhibition of rice alpha-glucosidase using p-nitrophenyl-glycoside as substrate by spectrophotometric method; parameters: species or system Oryza sativa
[14] = target: T3, Uncharacterized protein (Sus scrofa); assay: Inhibition of porcine kidney trehalase assessed as D-glucose level at 1000 uM using maltose as substrate measured after 10 to 30 mins
Aspergillus niger [15] = assay: Inhibition of Aspergillus niger amyloglucosidase assessed as D-glucose level at 1000 uM using maltose as substrate measured after 10 to 30 mins
Escherichia coli [16] = assay: Inhibition of Escherichia coli beta-glucuronidase at 1000 uM using p-nitrophenyl-glycoside as substrate by spectrophotometric method
Beta-galactosidase = target: T4, Beta-galactosidase (Bos taurus, UniProt Q58D55); assay: as §1
T4 sequence (Q58D55 whole entry): T2 sequence (whole entry)

Homo sapiens [17] = organism: Homo sapiens; assay: Inhibition of human lysosomal beta-glucosidase at 1000 uM using 4-methylumbelliferyl-beta-D-glucopyranoside as substrate preincubated for 45 mins followed by substrate addition measured after 30 mins by fluorescence spectrophotometric method
[18] = Inhibition of maltase in rat small intestinal brush border membranes assessed as D-glucose level using maltose as substrate measured after 10 to 30 mins
[19] = target: T1, Tissue alpha-L-fucosidase (Bos taurus); assay: Inhibition of bovine kidney alpha-L-fucosidase at 1000 uM using p-nitrophenyl-glycoside as substrate by spectrophotometric method
Prunus dulcis [20] = assay: Inhibition of almond beta-glucosidase at 1000 uM using p-nitrophenyl-glycoside as substrate by spectrophotometric method
Penicillium decumbens [21] = assay: Inhibition of Penicillium decumbens alpha-L-rhamnosidase at 1000 uM using p-nitrophenyl-glycoside as substrate by spectrophotometric method

## C[C@H](O)[C@@H]1NC[C@H](O)[C@@H]1O
[1]
  IC50: 4 µM

## OC[C@H]1[C@H](O)[C@@H](O)[C@@H]2CS/C(=N/Cc3ccc(Cl)c(Cl)c3)N12
[2]
  IC50: 0.23 µM
[3]
  Ki: 0.11 µM
Penicillium decumbens [4]
  Ratio IC50: 46

## OC[C@H]1[C@H](O)[C@@H](O)[C@@H]2CS/C(=N/CCCCCCCCCc3ccccc3)N12
[5]
  inhibition: < 50%
[2]
  IC50: 0.87 µM
[6]
  inhibition: < 50%
Oryza sativa
  inhibition: < 50%
Homo sapiens [7]
  inhibition: < 50%
Rattus norvegicus
  inhibition: < 50%
Escherichia coli [8]
  inhibition: < 50%
Prunus dulcis [9]
  inhibition: < 50%
Aspergillus niger [10]
  inhibition: < 50%
[11]
  IC50: 33 µM
[12]
  inhibition: < 50%

## CCCCCCCCNC(=S)N1[C@@H](CO)[C@H](O)[C@@H](O)[C@@H]1CO
[13]
  IC50: 1000 µM
[14]
  inhibition: < 50%
Aspergillus niger [15]
  inhibition: < 50%
Escherichia coli [16]
  inhibition: < 50%
Beta-galactosidase
  IC50: 266 µM
Homo sapiens [17]
  inhibition: < 50%
[18]
  IC50: 1000 µM
[19]
  inhibition: < 50%
Prunus dulcis [20]
  inhibition: < 50%
[11]
  IC50: 178 µM
Penicillium decumbens [21]
  inhibition: < 50%

## O[C@@H]1[C@@H]2[C@@H](O)CCCN2C[C@@H]1O
[1]
  IC50: 0.3 µM

## C[C@H](O)[C@H]1[C@@H](O)[C@@H](O)c2nnnn21
[1]
  IC50: 70 µM
